Assay results from patent US5955616A, “Pyrrolidine derivatives having phospholipase A2 inhibitory activity” (Shionogi & Co., Ltd., priority 1995, dated 1999).

Target: T1, cPLA2 (Homo sapiens, UniProt P47712)
T1 sequence (P47712 1-749): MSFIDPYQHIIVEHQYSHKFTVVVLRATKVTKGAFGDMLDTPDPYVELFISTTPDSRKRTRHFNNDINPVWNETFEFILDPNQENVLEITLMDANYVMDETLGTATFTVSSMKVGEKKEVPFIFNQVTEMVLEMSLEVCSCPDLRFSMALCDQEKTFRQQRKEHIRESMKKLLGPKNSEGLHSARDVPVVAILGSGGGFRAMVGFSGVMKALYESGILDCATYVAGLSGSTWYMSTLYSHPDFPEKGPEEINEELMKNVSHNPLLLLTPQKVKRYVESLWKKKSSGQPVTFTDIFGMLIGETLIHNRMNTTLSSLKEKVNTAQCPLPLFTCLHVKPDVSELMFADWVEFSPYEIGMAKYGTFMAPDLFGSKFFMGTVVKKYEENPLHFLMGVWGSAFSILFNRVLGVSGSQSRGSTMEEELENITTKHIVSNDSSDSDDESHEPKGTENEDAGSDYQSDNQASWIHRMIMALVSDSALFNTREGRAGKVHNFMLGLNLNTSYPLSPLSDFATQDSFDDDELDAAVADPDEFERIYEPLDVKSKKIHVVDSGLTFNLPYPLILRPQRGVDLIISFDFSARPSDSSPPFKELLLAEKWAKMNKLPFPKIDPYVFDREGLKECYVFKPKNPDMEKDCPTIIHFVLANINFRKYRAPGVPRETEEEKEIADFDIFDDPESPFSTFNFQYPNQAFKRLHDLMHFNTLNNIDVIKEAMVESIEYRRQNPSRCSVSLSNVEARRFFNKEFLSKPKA
Assay: cPLA2 Inhibitory activity (release of radiolabelled fatty acid from liposomes)
Assay type: biochemical
Settings: 50 mM HEPES pH 7.4, 1 mM CaCl2, 2.5 μM radio-labeled phosphatidylcholine, 15 min at 37° C; read-out: cPLA2 Inhibition Activity IC50
Description: Experiment 1 cPLA2 Inhibitory activity
The compounds of the present invention was tested for the cPLA2 inhibitory activity by a method known in a literature (R. M. Kramer, E. F. Roberts, J. Manetta and J. E. Putnam, J. Biol. Chem., 268(8), 5268-5272 ([…])), as outlined below.
As a substrate, liposomes which contain 1-palmitoyl-2-[^14 C]-arachidonoyl-sn-glycero-3-phosphocholine and sn-1,2-dioleoylglycerol at the ratio of 2:1 and have treated ultrasonically were used. The substrate was added to a 50 mM HEPES buffer (pH 7.4) (200 μl) containing 1 mM CaCl2, 2 mM dithiothreitol, 150 mM NaCl, 0.1 mg/ml BSA so as to make the concentration of radio-labeled phosphatidylcholine 2.5 μM. To the solution was added a compound of the present invention in DMSO (10 μl) to obtain reaction solutions each containing the test compound at 250 μM, 50 μM, 10 μm, 2 μM, and 0.4 μM. The reaction was allowed to start by adding an enzyme (cPLA2) (4 ng) and continued for 15 min at 37° C.
The amount of fatty acids released by the reaction was measured on a liquid scintillation counter. Control was obtained by conducting the experiment in the same manner except that a compound of the present invention was not added. The inhibitory activity was expressed as percent (%) to the control value, which was used for the calculation of the concentration required for 50% inhibition (IC50, μM).

Row | SMILES | IC50 [µM]
1 | O=C1NC(=S)SC1=Cc1ccc(NC(=O)[C@@H]2C[C@H](SCc3ccccc3)CN2C(=O)c2ccccc2)cc1 [Compound A-2] | 7.2
2 | Cc1cc(C)c(CS[C@H]2C[C@@H](C(=O)Nc3ccc(C=C4SC(=O)NC4=O)cc3)N(C(=O)c3ccccc3)C2)c(C)c1 [Compound A-10] | 3.8
3 | O=CN1C[C@@H](SCc2ccccc2)C[C@H]1C(=O)Nc1ccc(C=C2SC(=S)NC2=O)cc1 [Compound A-13] | 20
4 | CC(=O)N1C[C@@H](SCc2ccccc2)C[C@H]1C(=O)Nc1ccc(C=C2SC(=S)NC2=O)cc1 [Compound A-14] | 18
5 | CS[C@H]1C[C@@H](C(=O)Nc2ccc(C=C3SC(=S)NC3=O)cc2)N(C(=O)c2ccc(C(F)(F)F)cc2)C1 [Compound A-15] | 15
6 | O=C1NC(=S)SC1=Cc1ccc(NC(=O)[C@@H]2C[C@H](SCc3ccccc3)CN2)cc1 [Compound A-18] | 16
7 | CCCCCCCCCCCCCC(=O)N1C[C@@H](SC)C[C@H]1C(=O)Nc1ccc(C=C2SC(=S)NC2=O)cc1 [Compound A-19] | 4.3
8 | CS[C@H]1C[C@@H](C(=O)Nc2ccc(C=C3SC(=S)NC3=O)cc2)N(C(=O)CCc2ccccc2)C1 [Compound A-22] | 21
9 | CCCCS(=O)(=O)N1C[C@@H](SCc2ccccc2)C[C@H]1C(=O)Nc1ccc(C=C2SC(=S)NC2=O)cc1 [Compound A-31] | 4.8
10 | CN(C)S(=O)(=O)N1C[C@@H](SCc2ccccc2)C[C@H]1C(=O)Nc1ccc(C=C2SC(=S)NC2=O)cc1 [Compound A-32] | 4.8
11 | CC(C)S(=O)(=O)N1C[C@@H](SCc2ccccc2)C[C@H]1C(=O)Nc1ccc(C=C2SC(=S)NC2=O)cc1 [Compound A-33] | 6.4
12 | CS[C@H]1C[C@@H](C(=O)Nc2ccc(/C=C3\SC(=S)NC3=O)cc2)N(S(=O)(=O)c2ccc(Br)cc2)C1 [Compound A-34] | 6.3
13 | CS[C@H]1C[C@@H](C(=O)Nc2ccc(/C=C3\SC(=O)NC3=O)cc2)N(S(=O)(=O)c2ccc(Br)cc2)C1 [Compound A-35] | 1.9
14 | O=C1NC(=S)S/C1=C\c1ccc(NC(=O)[C@@H]2C[C@H](SCc3ccccc3)CN2S(=O)(=O)N2CCOCC2)cc1 [Compound A-36] | 14
15 | CS[C@H]1C[C@@H](C(=O)Nc2ccc(/C=C3\SC(=S)NC3=O)cc2)N(S(=O)(=O)c2ccc(Cc3ccccc3)cc2)C1 [Compound A-47] | 6
16 | CS[C@H]1C[C@@H](C(=O)Nc2ccc(/C=C3\SC(=S)NC3=O)cc2)N(S(=O)(=O)c2ccc(N(C)C)cc2)C1 [Compound A-49] | 17
17 | CS[C@H]1C[C@@H](C(=O)Nc2ccc(/C=C3\SC(=O)NC3=O)cc2)N(S(=O)(=O)c2ccc3ccccc3c2)C1 [Compound A-50] | 12
18 | O=C1NC(=S)S/C1=C\c1ccc(NC(=O)[C@@H]2C[C@H](SCc3ccccc3)CN2S(=O)(=O)c2cccc3cccnc23)cc1 [Compound A-51] | 6.3
19 | O=C1NC(=S)S/C1=C\c1ccc(NC(=O)[C@@H]2C[C@H](SCc3ccccc3)CN2S(=O)(=O)c2ccc(N=Nc3ccccc3)cc2)cc1 [Compound A-57] | 4.7
20 | CC(=O)Nc1nc(C)c(S(=O)(=O)N2C[C@@H](SCc3ccccc3)C[C@H]2C(=O)Nc2ccc(/C=C3\SC(=S)NC3=O)cc2)s1 [Compound A-59] | 8.6
21 | O=C1NC(=S)O/C1=C\c1ccc(NC(=O)[C@@H]2C[C@H](SC(c3ccccc3)(c3ccccc3)c3ccccc3)CN2S(=O)(=O)c2ccc(-c3ccccc3)cc2)cc1 [Compound A-63] | 3.2
22 | O=C1NC(=O)C(=Cc2ccc(S(=O)(=O)NC[C@@H]3C[C@H](SC(c4ccccc4)c4ccccc4)CN3C(=O)c3ccccc3)cc2)S1 [Compound B-8] | 1.3
23 | O=C1NC(=O)C(=Cc2ccc(S(=O)(=O)NCC3CC(SC(c4ccccc4)(c4ccccc4)c4ccccc4)CN3C(=O)c3ccccc3)cc2)S1 (stereo not shown) [Compound B-9] | 0.44
24 | O=C1NC(=O)/C(=C/c2ccc(COC[C@@H]3C[C@H](SC(c4ccccc4)(c4ccccc4)c4ccccc4)CN3C(=O)CCc3ccccc3)cc2)S1 [Compound E-1] | 1.1
25 | O=C1NC(=O)/C(=C/c2ccc(CCC[C@@H]3C[C@H](SC(c4ccccc4)(c4ccccc4)c4ccccc4)CN3C(=O)CCc3ccccc3)cc2)S1 [Compound E-3] | 0.85
26 | O=C1NC(=O)C(=Cc2ccc(OC[C@@H]3C[C@H](SCc4ccccc4)CN3C(=O)c3ccccc3)cc2)S1 [Compound E-5] | 7.7
27 | O=C1NC(=S)SC1=C[C@@H]1C[C@H](SCc2ccccc2)CN1S(=O)(=O)c1ccc(-c2ccccc2)cc1 [Compound F-2] | 10
28 | CC(C)(C)[Si](C)(C)N1C(=O)C[C@H]1C(=O)N1C[C@@H](OC(c2ccccc2)c2ccccc2)C[C@H]1CNC(=O)c1ccc(/C=C2\SC(=O)NC2=O)cc1 [Compound H-14] | 8.2

More lines, now with the values ahead:

Row | IC50 [µM] | SMILES
29 | 9 | CC(C)=CCC/C(C)=C/COC1C[C@@H](C(=O)Nc2ccc(/C=C3\SC(=O)NC3=O)cc2)N(C(=O)c2ccccc2)C1 (stereo partly shown) [Compound G-1]
30 | 20 | O=C1NC(=O)/C(=C/c2ccc(NC(=O)[C@@H]3CC(OCc4ccc(F)cc4)CN3C(=O)c3ccccc3)cc2)S1 (stereo partly shown) [Compound G-2]
31 | 17 | O=C1NC(=O)/C(=C/c2ccc(NC(=O)[C@@H]3CC(OCc4ccc(Cl)cc4)CN3C(=O)c3ccccc3)cc2)S1 (stereo partly shown) [Compound G-3]
32 | 14 | O=C1NC(=O)/C(=C/c2ccc(NC(=O)[C@@H]3CC(OCc4ccc(C(F)(F)F)cc4)CN3C(=O)c3ccccc3)cc2)S1 (stereo partly shown) [Compound G-4]
33 | 10 | Cc1cc(C)c(COC2C[C@@H](C(=O)Nc3ccc(C=C4SC(=O)NC4=O)cc3)N(C(=O)c3ccccc3)C2)c(C)c1 (stereo partly shown) [Compound G-6]
34 | 4.2 | O=C1NC(=O)/C(=C/c2ccc(NC(=O)[C@@H]3CC(OC(c4ccccc4)c4ccccc4)CN3C(=O)c3ccccc3)cc2)S1 (stereo partly shown) [Compound G-9]
35 | 6.7 | O=C1NC(=O)/C(=C/c2ccc(C(=O)NC[C@@H]3CC(OC(c4ccccc4)c4ccccc4)CN3C(=O)c3ccccc3)cc2)S1 (stereo partly shown) [Compound H-1]
36 | 8.1 | O=C1NC(=O)/C(=C/c2ccc(C(=O)NC[C@@H]3CC(OCc4ccc(F)cc4F)CN3S(=O)(=O)Cc3ccc(Br)cc3)cc2)S1 (stereo partly shown) [Compound H-2]
37 | 14 | Cc1ccc(CS(=O)(=O)N2CC(OCc3ccc(F)cc3F)C[C@H]2CNC(=O)c2ccc(/C=C3\SC(=O)NC3=O)cc2)cc1 (stereo partly shown) [Compound H-3]
38 | 26 | COC1C[C@@H](CNC(=O)c2ccc(/C=C3\SC(=O)NC3=O)cc2)N(S(=O)(=O)c2ccc(Cc3ccccc3)cc2)C1 (stereo partly shown) [Compound H-4]
39 | 6.4 | O=C1NC(=O)/C(=C/c2ccc(C(=O)NC[C@@H]3CC(OCc4ccc(F)cc4F)CN3S(=O)(=O)c3ccc(Cc4ccccc4)cc3)cc2)S1 (stereo partly shown) [Compound H-5]
40 | 1.7 | CC(C)(C)OC(=O)N1CC(OCc2ccc(F)cc2F)C[C@H]1CNC(=O)c1ccc(/C=C2\SC(=O)NC2=O)cc1 (stereo partly shown) [Compound H-6]
41 | 11 | CC(C)(C)OC(=O)N1CC(OCc2ccc(F)cc2F)C[C@H]1CNC(=O)c1ccc(/C=C2\SC(=S)NC2=O)cc1 (stereo partly shown) [Compound H-7]
42 | 6.2 | O=C1NC(=O)/C(=C/c2ccc(C(=O)NC[C@@H]3C[C@H](OC(c4ccccc4)c4ccccc4)CN3C(=O)c3cccc(OCN4C(=O)c5ccccc5S4(=O)=O)c3)cc2)S1 [Compound H-12]
43 | 4.4 | O=C1NC(=O)/C(=C/c2ccc(C(=O)NC[C@@H]3C[C@H](OC(c4ccccc4)c4ccccc4)CN3C(=O)c3ccc(OCN4C(=O)c5ccccc5S4(=O)=O)cc3)cc2)S1 [Compound H-13]
44 | 11 | CC(=O)Oc1ccc(OC(C)=O)c(CCCCCCC(=O)N2C[C@@H](OC(c3ccccc3)c3ccccc3)C[C@H]2CNC(=O)c2ccc(/C=C3\SC(=O)NC3=O)cc2)c1 [Compound H-15]
45 | 8.6 | O=C1NC(=O)/C(=C/c2ccc(S(=O)(=O)NC[C@@H]3CC(OCc4ccc(F)cc4F)CN3S(=O)(=O)Cc3ccc(Br)cc3)cc2)S1 (stereo partly shown) [Compound H-19]
46 | 6.6 | O=C1NC(=O)/C(=C/c2ccc(S(=O)(=O)NC[C@@H]3CC(OCc4ccc(F)cc4F)CN3S(=O)(=O)c3ccc(Cc4ccccc4)cc3)cc2)S1 (stereo partly shown) [Compound H-20]
